Assay [1] concerns hyperalgesia induced by administration of opiate analgesics. As to conditions: rat, in vivo; cited from earlier work.
The target in assay [2] is T1, hNPFFR1 (Homo sapiens, UniProt Q9GZQ6).
T1 construct: The cDNA encoding the full-length human NPFFR1 and human NPFFR2; expressed in transfected cells
Briefly: cAMP measurement (forskolin-stimulated cAMP accumulation) in CHO cells expressing SF-hNPFFR1. The following applies: antagonism of NPVF, Schild analysis; S.E.M. below 15%. The assay is classed as cell-based. The method, then: (§1) Functional coupling of SF-hNPFFR1 and SF-hNPFFR2 to adenylyl cyclase was assessed by measuring the inhibitory effects of agonist/antagonist and related compounds on forskolin-stimulated cAMP accumulation in CHO cells stably expressing both receptors as previously described (Gicquiaux et al., 2001) with minor modifications. Briefly, 80% confluent CHO cells expressing SF-hNPFFR1 or SF-hNPFFR2 were harvested and seeded in 96-well plates at an initial density of 10,000 cells per well. After 1-2 days of culture (90% confluency), cells were washed with 0.2 ml of PBS (in mM: 137 NaCl, 2.7 KCl, 0.9 CaCl2, 0.5 MgCl2, 6.5 Na2HPO4, 1.5 KH2PO4, pH 7.2), and then incubated at 37°C for 10 min with 0.2 ml assay buffer (in mM: 150 NaCl, 5 KCl, 2.5 CaCl2, 1.2 KH2PO4, 1.2 MgSO4, 25 NaHCO3, 10 HEPES, 10 mg/ml BSA, pH 7.4). After removal of buffer, 0.06 ml of fresh buffer containing 1 mM 3-isobutyl-1-methyl-xanthine (IBMX) was added for 10 min and cells were exposed to 10 µM forskolin without and with compounds (10^-10-10^-5 M) for 10 min at 37 °C in a final volume of 0.1 ml. The reaction was stopped by addition of 0.04 ml volume ice-cold 0.5 M HCl and cells were frozen (-80°C 1 hour) disrupted by sonication and suspensions were centrifuged at 2,000 × g for 15 min. The resulting supernatants were stored at -20°C until determination of cAMP by radioimmunoassay as described (Cailla et al., 1973). […]
Background: Changes in cAMP serve as a functional read-out for many G protein-coupled receptors.

The target of another assay is T2, hNPFFR2 (Homo sapiens, UniProt Q9Y5X5).
T2 construct: The cDNA encoding the full-length human NPFFR1 and human NPFFR2; expressed in transfected cells
Kind of assay: cAMP measurement (forskolin-stimulated cAMP accumulation) in CHO cells expressing SF-hNPFFR2. Type of assay: cell-based. As to conditions: antagonism of NPFF, Schild analysis; S.E.M. below 15%. The method, then:
as §1

Assay [3] deals with Fentanyl-induced hyperalgesia in rats. Briefly: Fentanyl-induced hyperalgesia in rats (paw pressure vocalization test). The assay is classed as in vivo. The following applies: for fentanyl-induced hyperalgesia / development of fentanyl-induced hyperalgesia: rats, 30 min before fentanyl; for fentanyl-induced hyperalgesia: P < 0.001, Newman-Keuls test.
The target in a further assay is T3, hNPFF2 (Homo sapiens, UniProt Q9Y5X5).
T3 construct: The cDNA encoding the full-length human NPFFR1 and human NPFFR2; expressed in transfected cells
Briefly: Receptor binding assay with [3H]-FFRFamide on CHO cell membranes expressing SF-hNPFFR2. As to conditions: for Ki / inhibition at 0.5 µM / inhibition at 5 µM: [3H]-FFRF-NH2 radioligand; for Ki: read-out: Ki NPFF2. The source says: (§2) The cDNA encoding the full-length human NPFFR1 and human NPFFR2 were subcloned into the pcDNA3 expression vector (Invitrogen, Cergy Pontoise, France) using standard molecular biology methods. A sequence encoding a signal sequence and a Flag epitope was fused to the 5' coding sequence of both hNPFFR1 and hNPFFR2 cDNA according to (Guan et al., 1992) resulting in a SF-hNPFFR1 and SF-hNPFFR2 constructs. These contructs were stably transfected into CHO cells.
(§3) Membranes from CHO cells stably expressing SF-hNPFFR1 or SF-hNPFFR2 were prepared as described (Becker et al., 1999). SF-hNPFFR1 or SF-hNPFFR2 membranes (10µg) were incubated for 30 min at 25 °C in a final volume of 0.5 ml containing 50 mM HEPES pH 7.4, 1 mM CaCl2, 1 mM MgCl2, 0.1% bovine serum albumin, 10 nM and 3 nM [^3H]-FFRFamide (CEA, Paris; specific activity, 13,6 Ci/mmol) for […], respectively and the ligands to be tested. Non-specific binding was determined in presence of 1 µM neuropeptide FF for SF-hNPFFR2 and 1 µM neuropeptide VF for SF -hNPFFR1. Typical total and nonspecific binding were 1200 and 200 dpm, respectively for SF-hNPFFR1 and SF-hNPFFR2. Incubation mixtures were rapidly filtered and washed with 50 mM HEPES pH 7.4, 1 mM CaCl2, 1 mM MgCl2, on 96 wells GF/B unifilter (Perkin Elmer). Unifilter plates where then dryied for 1hr at 65°C. Bound radioactivity was determined by scintillation counting with 30 µl of scintillation cocktail (O-scint, Perkin Elmer) per well on a Topcount scintillation apparatus (Perkin Elmer).

Assay [4] deals with T1, hNPFFR1. Kind of assay: cAMP measurement (forskolin-stimulated cAMP accumulation) in CHO cells expressing SF-hNPFFR1. Type of assay: cell-based. The protocol:
as §1, with “After removal of buffer, 0.06 ml of fresh buffer containing 1 mM 3-isobutyl-1-methyl-xanthine (IBMX) was added for 10 min and cells were exposed to 10 µM forskolin without and with compounds (10^-10-10^-5 M) for 10 min at 37 °C in a final volume of 0.1 ml.” left out, “1973). For antagonist evaluation, dose response curves of agonists (NPVF and NPFF for hNPFFR1 and hNPFFR2, respectively) were performed in the presence of fixed concentrations of antagonist.” for “1973).”

The subject of assay [5] is Fentanyl-induced hyperalgesia followed by carrageenan injection in rats. Briefly: Fentanyl-induced hyperalgesia followed by carrageenan injection in rats. Type of assay: in vivo. As to conditions: 0.5 mg/kg s.c. 30 min before fentanyl at D0, carrageenan at D13, P < 0.001 Newman-Keuls test.
A further assay deals with T4, hNPFF1 (Homo sapiens, UniProt Q9GZQ6).
T4 construct: The cDNA encoding the full-length human NPFFR1 and human NPFFR2; expressed in transfected cells
Kind of assay: Receptor binding assay with [3H]-FFRFamide on CHO cell membranes expressing SF-hNPFFR1. The following applies: for Ki: [3H]-FFRF-NH2 radioligand, mean of at least two experiments, read-out: Ki NPFF1.
Text: as §2, §3

In assay [6] the target is T1, hNPFFR1. Briefly: [35S]GTPγS binding measurement on SF-hNPFFR1 membranes. The assay is classed as biochemical. The following applies: tested alone, up to 50 µM. The method, then:
For [^35S]GTPγS binding experiments, SF-hNPFFR1 or SF-hNPFFR2 membrane proteins (5 µg) were incubated for 45 min at 30 °C in a final volume of 0.5 ml containing 20 mM HEPES pH 7.4, 100 mM NaCl, 3 mM MgCl2, 10 µM GDP, 10 µg/ml Saponin, 0.1 nM [^35S]GTPγS and ligands. Non-specific binding was determined in the presence of 10 µM GTPγS. Incubation mixtures were rapidly filtered and washed with 10 mM HEPES pH 7.4, 0,5 M NaCl, 1,5 mM MgCl2, on 96 wells GF/B unifilter (Perkin Elmer). Unifilter plates where then dryied for 1hr at 65°C. Bound radioactivity was determined by scintillation counting with 30 µl of scintillation cocktail (O-scint, Perkin Elmer) per well on a Topcount scintillation apparatus (Perkin Elmer).
In general terms: Binding of GTPγS marks nucleotide exchange on a G protein.

Setting [7] is: mean of at least two experiments.

Values joined by “and” are separate entries in the source; they are usually repeats but may differ in a detail not shown here. Equal entries are not always repeated. Where two headings read alike, the source gives them in different places.

T3 sequence (Q9Y5X5 whole entry): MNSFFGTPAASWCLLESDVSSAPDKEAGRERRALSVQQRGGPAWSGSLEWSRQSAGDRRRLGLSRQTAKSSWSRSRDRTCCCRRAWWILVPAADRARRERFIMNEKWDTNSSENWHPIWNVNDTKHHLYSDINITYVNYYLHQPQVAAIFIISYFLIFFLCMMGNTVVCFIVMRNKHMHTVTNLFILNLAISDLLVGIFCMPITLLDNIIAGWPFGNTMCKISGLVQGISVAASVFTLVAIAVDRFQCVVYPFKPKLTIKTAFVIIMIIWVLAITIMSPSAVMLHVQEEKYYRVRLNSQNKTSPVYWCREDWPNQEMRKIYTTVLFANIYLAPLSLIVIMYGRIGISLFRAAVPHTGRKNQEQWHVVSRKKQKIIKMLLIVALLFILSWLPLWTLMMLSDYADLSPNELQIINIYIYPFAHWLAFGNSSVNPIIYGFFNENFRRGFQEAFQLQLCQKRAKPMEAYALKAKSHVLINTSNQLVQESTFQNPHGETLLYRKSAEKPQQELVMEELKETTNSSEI
T4 sequence (Q9GZQ6 whole entry): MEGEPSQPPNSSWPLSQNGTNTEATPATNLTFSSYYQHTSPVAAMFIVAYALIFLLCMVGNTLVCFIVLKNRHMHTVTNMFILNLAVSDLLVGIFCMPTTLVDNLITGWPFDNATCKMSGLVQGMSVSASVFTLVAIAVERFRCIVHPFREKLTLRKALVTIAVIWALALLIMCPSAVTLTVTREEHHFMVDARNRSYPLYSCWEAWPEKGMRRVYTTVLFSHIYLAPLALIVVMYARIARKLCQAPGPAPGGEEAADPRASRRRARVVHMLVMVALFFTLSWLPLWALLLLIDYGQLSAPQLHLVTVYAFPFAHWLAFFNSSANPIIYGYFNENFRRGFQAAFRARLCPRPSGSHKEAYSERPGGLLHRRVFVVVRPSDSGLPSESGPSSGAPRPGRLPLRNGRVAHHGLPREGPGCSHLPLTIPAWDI
T1 sequence (Q9GZQ6 whole entry): as above
T2 sequence (Q9Y5X5 whole entry): as the sequence (Q9Y5X5 whole entry) above

On to “N^α-adamantan-1-yl-L-Arg-L-Phe-NH2 acetate [RF9]”, for which, in assay [1], the “activity on hyperalgesia induced by repeated administration of opiate analgesics” value was “antihyperalgesic activity”. Also, the “pA2 value for hNPFFR1” value at hNPFFR1 [2] was found to be 6.47. Also, the “pA2 for hNPFFR2” value at hNPFFR2 was 6,65.
In the case of `O=C(N[C@@H](CCCN1CCCCC1)C(=O)NCCc1ccccc1)c1ccccc1-c1ccccc1` [Compound 26, (2S)-N-(2-phenylethyl)-2-[(2-phenylphenyl)formamido]-5-(piperidin-1-yl)pentanamide], the “in vivo activity after oral administration” value in [3] (oral, low dose of 1 mg/kg) was “highly satisfactory in vivo activity”. In addition, the “hyperalgesia induced by administration of fentanyl” value in assay [3] (rat, single 0.5 mg/kg dose, i.p.) is listed as “blocks”. The fentanyl-induced hyperalgesia result in assay [3] (0.5 mg/kg subcutaneously) and in [3] (3 mg/kg orally) was “completely abolished” each time. The “development of fentanyl-induced hyperalgesia” value in assay [3] (orally 0.3, 1 and 3 mg/kg) is “dose-dependently prevented”; in assay [3] (subcutaneously 0.05, 0.1 and 0.5 mg/kg) it was “dose-dependently prevented”. Also, the Ki is above 13 µM on hNPFF2 (unit µM printed with the value); 60 nM and 65 nM on hNPFF1. Besides, the “affinity for NPFFR2” value at hNPFF2 (in words) is given as “very low affinity”. The Kb at hNPFFR1 [4] (read-out: pA2 value for hNPFFR1 (converted)) was 977 nM. Also, the “decrease of forskolin-stimulated cAMP accumulation” value at hNPFFR1 [4] (tested alone, up to 50 µM) is recorded as “did not decrease”. For the same compound, the “increase in inflammatory hyperalgesia induced by prior fentanyl injection” value in assay [5] is reported as “completely prevented”. On hNPFF1 (in words), the “affinity for NPFFR1” value is on record as “good affinity”. Further, the “stimulation of the binding of [35S]GTPgS” value on hNPFFR1 [6] was “did not stimulate”.
With `O=C(N[C@@H](CCCN1CCC(Cc2ccccc2)CC1)C(=O)NCCc1ccccc1)c1cccc(Cl)c1` [Compound 43, (2S)-5-(4-benzylpiperidin-1-yl)-2-[(3-chlorophenyl)formamido]-N-(2-phenylethyl)pentanamide], the Ki on hNPFF2 (setting [7]) came to 0.147 ± 0.002 µM; at hNPFF1 it was 441 ± 80 nM.
On hNPFF2 (setting [7]), `CN1CCN(CCC[C@H](NC(=O)c2ccccc2-c2ccccc2)C(=O)NCCc2ccccc2)CC1` [Compound 34, (2S)-5-(4-methylpiperazin-1-yl)-N-(2-phenylethyl)-2-[(2-phenylphenyl)formamido]pentanamide] registered an inhibition at 0.5 µM of 0% and an inhibition at 5 µM of 12 ± 5%. Moreover, the Ki on hNPFF1 amounted to 232 ± 17 nM.
Regarding `O=C(CCCNC(=O)c1ccccc1)N[C@@H](CCCN1CCC(Cc2ccccc2)CC1)C(=O)NCCc1ccccc1` [Compound 46, (2S)-5-(4-benzylpiperidin-1-yl)-N-(2-phenylethyl)-2-[4-(phenylformamido)butanamido]pentanamide], the inhibition at 0.7 µM on hNPFF2 (0.7 µM (footnote e)) stood at 4%; on hNPFF1 (0.7 µM (footnote e)), 35%. For the same compound, the inhibition at 7 µM came out at 39% at hNPFF2 (7 µM (footnote d)) and 59% at hNPFF1 (7 µM (footnote d)).
With `O=C(N[C@H](CCCCNCc1ccccc1)C(=O)NCCc1ccccc1)c1ccccc1-c1ccccc1` [Compound 7, (2R)-6-(benzylamino)-N-(2-phenylethyl)-2-[(2-phenylphenyl)formamido]hexanamide], the Ki is 0.605 ± 0.18 µM on hNPFF2 (setting [7]) and 22 ± 4 nM on hNPFF1.
As to `O=C(N[C@@H](CCCNCc1cccc(Cl)c1)C(=O)NCCc1ccccc1)c1ccccc1-c1ccccc1` [Compound 13, (2S)-5-{[(3-chlorophenyl)methyl]amino}-N-(2-phenylethyl)-2-[(2-phenylphenyl)formamido]pentanamide], at hNPFF2 (setting [7]), the inhibition at 0.5 µM was 23 ± 17% and the inhibition at 5 µM was 67 ± 4%. Besides, the Ki at hNPFF1 came to 59 ± 14 nM.

By Ki is commonly meant the dissociation constant of the complex between target and ligand, obtained from inhibition or displacement. The inhibition is how much of the control response was suppressed. Lower therefore signals a weak effect.
